Assay results reported in US11787812B2, “Substituted pyrazolo[4,3-d]pyrimidines and imidazo[5,1 -f][1,2,4]triazines as androgen receptor and phosphodiesterase dual inhibitors” (ILDONG PHARMACEUTICAL CO., LTD., priority 2020, dated 2023).
Where two headings read alike, the source gives them in different places.

Assays:
human PDE-5A1 = human PDE-5A1 (Homo sapiens (Human), UniProt O76074); experiment: Human PDE-5A1 inhibition assay (fluorescence polarization, FAM-cGMP); format: biochemical; conditions: human PDE5A1, 100 nM FAM-cGMP, 60 minutes room temperature
Text: This example illustrates the in vitro inhibition of human PDE-5A1 by exemplary compounds of this disclosure (e.g., as described herein).
Sildenafil citrate (Catalog no. LKT-S3313, Axxora, San Diego, CA), Vardenafil hydrochloride trihydrate (Catalog no. SML2103, Sigma-Aldrich, St. Louis, MO), PDE Assay Buffer (Catalog no. 60393, BPS bioscience, San Diego, CA), PDE Binding Agent (Catalog no. 60390, BPS bioscience, San Diego, CA) and PDE Binding Agent Diluent (cGMP, Catalog no. 60392, BPS bioscience, San Diego, CA) were used for assays. Test compounds were supplied by Ildong Pharmaceuticals Co., Ltd.
The serial dilution of the compounds was first performed in 100% DMSO with the highest concentration at 1 mM and 0.1 mM. Each intermediate compound dilution (in 100% DMSO) will then get directly diluted 10× fold into assay buffer for 10% DMSO and 5 μL of the dilution was added to a 50 μL reaction so that the final concentration of DMSO is 1% in all reactions.
The enzymatic reactions were conducted at room temperature for 60 minutes in a 50 μL mixture containing PDE assay buffer, 100 nM FAM-cGMP, a PDE enzyme (Table 2) and the test compounds.
After enzymatic reaction, 100 μL of a binding solution (1:100 dilution of the binding agent with the binding agent diluent) was added to each reaction and the reaction was performed at room temperature for 60 minutes.
Fluorescence intensity was measured at excitation of 485 nm and an emission of 528 nm using a Tecan Infinite M1000 microplate reader.
PDE activity assays were performed in duplicate at each concentration. Fluorescence intensity is converted to fluorescence polarization using the Tecan Magellan6 software. The fluorescence polarization (FPt) in absence of the compound in each data set was defined as 100% activity. In the absence of PDE and the compound, the value fluorescent polarization (FPb) in each data set was defined as 0% activity. The percent activity in the presence of compound was calculated according to Equation 1:
[formula] where FP=the fluorescence polarization in the presence of the compound.
The values of % activity versus a series of compound concentrations were then plotted using non-linear regression analysis of Sigmoidal dose-response curve generated with Equation 2:
[formula] where Y=percent activity, B=minimum percent activity, T=maximum percent activity, X=logarithm of compound, and Hill Slope=slope factor or Hill coefficient. The IC50 value was determined by the concentration causing a half-maximal percent activity. Results

androgen receptor (AR) = androgen receptor (AR) (Homo sapiens (Human), UniProt P10275); experiment: Androgen receptor (AR) reporter assay, antagonist screen activated by R1881; format: cell-based; conditions: AR-UAS-bla GripTite 293 cells, antagonist mode, R1881 at EC80
Experimental: The protocols and results of this Example were carried out and obtained by Thermofisher Scientific.
Test compounds were received at 1000× (or greater) of the desired starting concentration in 100% DMSO. If compounds were supplied at greater that 1000× concentration, an initial dilution is made in 100% DMSO to bring the compounds to 1000× concentration. The 1000× test compounds were serially diluted (10 point ½-log increments) in 100% DMSO.
The Substrate Loading Solution consists of three Life Technologies reagents: Solution A (10 mM LiveBLAzer™-FRET B/G Substrate), Solution B and Solution C.
Androgen Receptor (AR)—Antagonist Screen, Activated by R1881
AR-UAS-bla GripTite™ 293 cells were thawed and resuspended in Assay Media (DMEM phenol red free, 2% CD-treated FBS, 0.1 mM NEAA, 1 mM Sodium Pyruvate, 100 U/mL/100 μg/mL Pen/Strep) to a concentration of 312,500 cells/mL. 4 μL of a 10× serial dilution of Cyproterone Acetate (control antagonist starting concentration, 3,160 nM) or compounds are added to appropriate wells of a Poly-D-Lysine assay plate. 32 μL of cell suspension was added to the wells and pre-incubated at 37° C./5% CO2 in a humidified incubator with compounds and control antagonist titration for 30 minutes. 4 μL of 10× control agonist R1881 at the pre-determined EC80 concentration was added to wells containing the control antagonist or compounds. The plate was incubated for 16-24 hours at 37° C./5% CO2 in a humidified incubator. 8 μL of 1 μM Substrate Loading Solution is added to each well and the plate was incubated for 2 hours at room temperature. The plate was read on a fluorescence plate reader (Tecan Safire^2).

Human androgen receptors = Human androgen receptors (Homo sapiens (Human), UniProt P10275, T878A); experiment: Androgen receptor (AR) radioligand binding assay
Experimental: Methods employed in this study have been adapted from the following literature procedure.
Human androgen receptors obtained from human LNCaP cells are used in modified HEPES buffer pH 7.4. […] Non-specific binding is estimated in the presence of 1 μM testosterone. […] (See, e.g., Traish, A. M et al., Binding of 7α, 17α-dimethyl-19-nortestosterone (Mibolerone) to androgen and progesterone receptors in human and animal tissues. Endocrinology. 118(4): 1327-1333, 1986).
Compounds are screened at 10 μM.
Where presented, IC50 values were determined by a non-linear, least squares regression analysis using MathIQ™ (ID Business Solutions Ltd., UK).

[1] = receptors from human LNCaP cells, 0.5 nM [3H]Methyltrienolone, 20 hours at 4° C., read-out: AR IC50

Human androgen receptors, sequence (P10275 whole entry T878A): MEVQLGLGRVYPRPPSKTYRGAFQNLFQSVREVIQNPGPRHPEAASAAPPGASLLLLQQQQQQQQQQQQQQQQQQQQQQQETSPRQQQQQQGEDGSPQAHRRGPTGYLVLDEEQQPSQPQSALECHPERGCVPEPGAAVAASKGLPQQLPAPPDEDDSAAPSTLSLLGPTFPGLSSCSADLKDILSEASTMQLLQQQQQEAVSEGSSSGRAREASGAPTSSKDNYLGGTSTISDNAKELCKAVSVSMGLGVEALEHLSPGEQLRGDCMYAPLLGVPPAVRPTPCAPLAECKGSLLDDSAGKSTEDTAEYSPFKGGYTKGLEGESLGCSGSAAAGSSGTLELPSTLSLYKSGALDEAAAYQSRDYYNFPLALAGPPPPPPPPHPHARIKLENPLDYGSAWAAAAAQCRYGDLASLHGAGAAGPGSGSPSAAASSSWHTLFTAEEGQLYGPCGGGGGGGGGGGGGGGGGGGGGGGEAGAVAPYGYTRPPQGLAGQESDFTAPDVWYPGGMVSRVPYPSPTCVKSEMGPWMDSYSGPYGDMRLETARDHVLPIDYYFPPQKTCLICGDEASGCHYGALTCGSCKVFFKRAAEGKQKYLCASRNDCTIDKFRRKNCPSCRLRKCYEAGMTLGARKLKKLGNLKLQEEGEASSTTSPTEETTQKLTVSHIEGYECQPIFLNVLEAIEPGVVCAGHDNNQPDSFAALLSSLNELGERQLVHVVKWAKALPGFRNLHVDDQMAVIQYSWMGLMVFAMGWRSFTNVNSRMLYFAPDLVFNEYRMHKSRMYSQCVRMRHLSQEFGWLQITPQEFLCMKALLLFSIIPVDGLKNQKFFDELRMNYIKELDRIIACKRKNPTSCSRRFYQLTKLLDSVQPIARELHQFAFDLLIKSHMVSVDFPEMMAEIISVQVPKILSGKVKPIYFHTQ
androgen receptor (AR), sequence (P10275 other isoform, or with tags, fused parts or gaps): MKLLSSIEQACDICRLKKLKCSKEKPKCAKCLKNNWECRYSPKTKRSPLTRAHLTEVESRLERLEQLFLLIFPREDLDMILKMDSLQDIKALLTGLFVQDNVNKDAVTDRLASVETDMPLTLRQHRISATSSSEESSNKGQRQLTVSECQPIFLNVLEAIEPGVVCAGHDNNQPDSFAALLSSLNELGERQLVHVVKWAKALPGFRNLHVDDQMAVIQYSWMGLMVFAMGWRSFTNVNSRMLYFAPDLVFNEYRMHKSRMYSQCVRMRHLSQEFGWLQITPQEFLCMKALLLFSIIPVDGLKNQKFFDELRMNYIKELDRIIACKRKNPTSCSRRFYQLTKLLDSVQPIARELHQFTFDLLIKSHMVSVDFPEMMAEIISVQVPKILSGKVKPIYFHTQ

Compound | IC50 (human PDE-5A1) [nM] | IC50 (androgen receptor (AR)) [nM] | IC50 (Human androgen receptors; [1]) [nM] | IC50 (Human androgen receptors; read-out: AR IC50) [nM] | IC50 (Human androgen receptors) [nM]
CCCc1nc(C)c2c(=O)[nH]c(-c3cc(N4C(=S)N(c5ccc(C#N)c(C(F)(F)F)c5)C(=O)C4(C)C)ccc3OCC)nn12 [Compound 18, 4-(3-(4-ethoxy-3-(5-methyl-4-oxo-7-propyl-3,4-dihydroimidazo[5,1-f][1,2,4]triazin-2-yl)phenyl)-4,4-dimethyl-5-oxo-2-thioxoimidazolidin-1-yl)-2-(trifluoromethyl)benzonitrile] | ≤ 10 | ≤ 500 | < 50 |  | 
CCCc1nn(C)c2c(=O)[nH]c(-c3cc(N4C(=S)N(c5cnc(C#N)c(C(F)(F)F)c5)C(=O)C4(C)C)ccc3OCC)nc12 [Compound 19, 5-(3-(4-ethoxy-3-(1-methyl-7-oxo-3-propyl-6,7-dihydro-1H-pyrazolo[4,3-d]pyrimidin-5-yl)phenyl)-4,4-dimethyl-5-oxo-2-thioxoimidazolidin-1-yl)-3-(trifluoromethyl)picolinonitrile] | > 100 | 500 to 1000 | > 200 |  | 
CCCc1nc(C)c2c(=O)[nH]c(-c3cc(N4C(=S)N(c5cnc(C#N)c(C(F)(F)F)c5)C(=O)C4(C)C)ccc3OCC)nn12 [Compound 20, 5-(3-(4-ethoxy-3-(5-methyl-4-oxo-7-propyl-3,4-dihydroimidazo[5,1-f][1,2,4]triazin-2-yl)phenyl)-4,4-dimethyl-5-oxo-2-thioxoimidazolidin-1-yl)-3-(trifluoromethyl)picolinonitrile] | ≤ 10 | ≤ 500 |  | 50 to 200 | 
CCCc1nn(C)c2c(=O)[nH]c(-c3cc(N4C(=S)N(c5ccc(C#N)c(C(F)(F)F)c5)C(=O)C45CCC5)ccc3OCC)nc12 [Compound 21, 4-(5-(4-ethoxy-3-(1-methyl-7-oxo-3-propyl-6,7-dihydro-1H-pyrazolo[4,3-d]pyrimidin-5-yl)phenyl)-8-oxo-6-thioxo-5,7-diazaspiro[3.4]octan-7-yl)-2-(trifluoromethyl)benzonitrile] | > 100 | ≤ 500 | > 200 |  | 
CCCc1nc(C)c2c(=O)[nH]c(-c3cc(N4C(=S)N(c5ccc(C#N)c(C(F)(F)F)c5)C(=O)C45CCC5)ccc3OCC)nn12 [Compound 22, 4-(5-(4-ethoxy-3-(5-methyl-4-oxo-7-propyl-3,4-dihydroimidazo[5,1-f][1,2,4]triazin-2-yl)phenyl)-8-oxo-6-thioxo-5,7-diazaspiro[3.4]octan-7-yl)-2-(trifluoromethyl)benzonitrile] | ≤ 10 | ≤ 500 |  |  | 50 to 200
CCCc1nn(C)c2c(=O)[nH]c(-c3cc(N4C(=S)N(c5cnc(C#N)c(C(F)(F)F)c5)C(=O)C45CCC5)ccc3OCC)nc12 [Compound 23, 5-(5-(4-ethoxy-3-(1-methyl-7-oxo-3-propyl-6,7-dihydro-1H-pyrazolo[4,3-d]pyrimidin-5-yl)phenyl)-8-oxo-6-thioxo-5,7-diazaspiro[3.4]octan-7-yl)-3-(trifluoromethyl)picolinonitrile] | > 100 | ≤ 500 | > 200 |  | 
CCCc1nc(C)c2c(=O)[nH]c(-c3cc(N4C(=S)N(c5ccc(C#N)c(C(F)(F)F)c5)C(=O)C4C)ccc3OCC)nn12 (stereo not drawn) [Compound 26, 4-(3-(4-ethoxy-3-(5-methyl-4-oxo-7-propyl-3,4-dihydroimidazo[5,1-f][1,2,4]triazin-2-yl)phenyl)-4-methyl-5-oxo-2-thioxoimidazolidin-1-yl)-2-(trifluoromethyl)benzonitrile] | ≤ 10 | > 100 | > 200 |  | 
CCCc1nc(C)c2c(=O)[nH]c(-c3cc(S(=O)(=O)NC4CN(c5ccc(C#N)c(C(F)(F)F)c5)C4)ccc3OCC)nn12 [Compound 29, N-(1-(4-cyano-3-(trifluoromethyl)phenyl)azetidin-3-yl)-4-ethoxy-3-(5-methyl-4-oxo-7-propyl-3,4-dihydroimidazo[5,1-f][1,2,4]triazin-2-yl)benzenesulfonamide] | ≤ 10 | 500 to 1000 |  |  | 50 to 200
CCCc1nc(C)c2c(=O)[nH]c(-c3cc(S(=O)(=O)NC4CCN(c5ccc(C#N)c(C(F)(F)F)c5)CC4)ccc3OCC)nn12 [Compound 30, N-(1-(4-cyano-3-(trifluoromethyl)phenyl)piperidin-4-yl)-4-ethoxy-3-(5-methyl-4-oxo-7-propyl-3,4-dihydroimidazo[5,1-f][1,2,4]triazin-2-yl)benzenesulfonamide] | ≤ 10 | ≤ 500 | < 50 |  | 
CCCc1nc(C)c2c(=O)[nH]c(-c3cc(S(=O)(=O)NC4CCN(c5ccc(C#N)c(C(F)(F)F)c5)C4)ccc3OCC)nn12 (stereo not drawn) [Compound 31, N-(1-(4-cyano-3-(trifluoromethyl)phenyl)pyrrolidin-3-yl)-4-ethoxy-3-(5-methyl-4-oxo-7-propyl-3,4-dihydroimidazo[5,1-f][1,2,4]triazin-2-yl)benzenesulfonamide] | ≤ 10 | 500 to 1000 |  |  | 50 to 200
CCCc1nc(C)c2c(=O)[nH]c(-c3cc(S(=O)(=O)NC4CCN(c5ccc(C#N)c(C(F)(F)F)c5)C4=O)ccc3OCC)nn12 (stereo not drawn) [Compound 32, N-(1-(4-cyano-3-(trifluoromethyl)phenyl)-2-oxopyrrolidin-3-yl)-4-ethoxy-3-(5-methyl-4-oxo-7-propyl-3,4-dihydroimidazo[5,1-f][1,2,4]triazin-2-yl)benzenesulfonamide] | ≤ 10 | > 100 | > 200 |  | 
CCCc1nc(C)c2c(=O)[nH]c(-c3cc(S(=O)(=O)NC4CC(=O)N(c5ccc(C#N)c(C(F)(F)F)c5)C4)ccc3OCC)nn12 (stereo not drawn) [Compound 33, N-(1-(4-cyano-3-(trifluoromethyl)phenyl)-5-oxopyrrolidin-3-yl)-4-ethoxy-3-(5-methyl-4-oxo-7-propyl-3,4-dihydroimidazo[5,1-f][1,2,4]triazin-2-yl)benzenesulfonamide] | ≤ 10 | > 100 | > 200 |  | 
CCCc1nc(C)c2c(=O)[nH]c(-c3cc(N4C(=S)N(c5ccc(C#N)c(C(F)(F)F)c5)C(=O)C45CCOC5)ccc3OCC)nn12 (stereo not drawn) [Compound 34, 4-(1-(4-ethoxy-3-(5-methyl-4-oxo-7-propyl-3,4-dihydroimidazo[5,1-f][1,2,4]triazin-2-yl)phenyl)-4-oxo-2-thioxo-7-oxa-1,3-diazaspiro[4.4]nonan-3-yl)-2-(trifluoromethyl)benzonitrile] | ≤ 10 | ≤ 500 |  |  | 50 to 200
